In ChEMBL document CHEMBL1240316, “An oxidation-sensing mechanism is used by the global regulator MgrA in Staphylococcus aureus” (2006):
The source made the active and inactive calls. The calls are words filed in the database; no cut-off is given here.

What was measured:
Format in all cases: functional, organism-based
Staphylococcus aureus [1] = assay: Antimicrobial activity against Staphylococcus aureus assessed as visible growth at 0.35 ug/ml after 24 hrs
Staphylococcus aureus [2] = assay: Antimicrobial activity against Staphylococcus aureus assessed as visible growth at 0.75 ug/ml after 24 hrs in presence of 20 uM paraquat
Staphylococcus aureus [3] = assay: Antimicrobial activity against Staphylococcus aureus expressing mgrA C12S mutant gene assessed as visible growth at 0.55 ug/ml after 24 hrs in presence of 20 uM paraquat
Staphylococcus aureus [4] = assay: Antimicrobial activity against Staphylococcus aureus expressing mgrA C12S mutant gene harboring Pyj335-His-mgrA assessed as visible growth at 0.20 ug/ml after 24 hrs
Staphylococcus aureus [5] = assay: Antimicrobial activity against Staphylococcus aureus expressing mgrA C12S mutant gene harboring plasmid Pyj335 assessed as visible growth at 0.20 ug/ml after 24 hrs in presence of 100 uM hydrogen peroxide
Staphylococcus aureus [6] = assay: Antimicrobial activity against Staphylococcus aureus expressing mgrAC12S mutant gene assessed as visible growth at 0.20 ug/ml after 24 hrs in presence of 100 uM hydrogen peroxide
Staphylococcus aureus [7] = assay: Antimicrobial activity against Staphylococcus aureus expressing mgrA C12S mutant gene harboring Pyj335-His-mgrAC12S assessed as visible growth at 0.20 ug/ml after 24 hrs in presence of 25 uM paraquat
Staphylococcus aureus [8] = assay: Antimicrobial activity against Staphylococcus aureus expressing mgrA C12S mutant gene harboring plasmid Pyj335 assessed as visible growth at 0.45 ug/ml after 24 hrs in presence of 20 uM paraquat
Staphylococcus aureus [9] = assay: Antimicrobial activity against Staphylococcus aureus expressing mgrA C12S mutant gene harboring Pyj335-His-mgrA assessed as visible growth at 0.25 ug/ml after 24 hrs in presence of 20 uM paraquat
Staphylococcus aureus [10] = assay: Antimicrobial activity against Staphylococcus aureus assessed as visible growth at 0.6 ug/ml after 24 hrs in presence of 20 uM paraquat
Staphylococcus aureus [11] = assay: Antimicrobial activity against Staphylococcus aureus assessed as visible growth at 2.2 ug/ml after 24 hrs
Staphylococcus aureus [12] = assay: Antimicrobial activity against Staphylococcus aureus assessed as visible growth at 2.2 ug/ml after 24 hrs in presence of 20 uM paraquat
Staphylococcus aureus [13] = assay: Antimicrobial activity against Staphylococcus aureus expressing mgrA C12S mutant gene harboring Pyj335-His-mgrA C12S assessed as visible growth at 1.1 ug/ml after 24 hrs
Staphylococcus aureus [14] = assay: Antimicrobial activity against Staphylococcus aureus assessed as visible growth at 1.1 ug/ml after 24 hrs in presence of 100 uM hydrogen peroxide
Staphylococcus aureus [15] = assay: Antimicrobial activity against Staphylococcus aureus expressing mgrA C12S mutant gene harboring Pyj335-His-mgrA assessed as visible growth at 1.1 ug/ml after 24 hrs in presence of 25 uM paraquat
Staphylococcus aureus [16] = assay: Antimicrobial activity against Staphylococcus aureus expressing mgrA C12S mutant gene harboring plasmid Pyj335 assessed as visible growth at 0.6 ug/ml after 24 hrs
Staphylococcus aureus [17] = assay: Antimicrobial activity against Staphylococcus aureus expressing mgrA C12S mutant gene harboring plasmid Pyj335 assessed as visible growth at 1.4 ug/ml after 24 hrs in presence of 20 uM paraquat
Staphylococcus aureus [18] = assay: Antimicrobial activity against Staphylococcus aureus expressing mgrA C12S mutant gene harboring plasmid Pyj335 assessed as visible growth at 1.8 ug/ml after 24 hrs in presence of 20 uM paraquat
Staphylococcus aureus [19] = assay: Antimicrobial activity against Staphylococcus aureus expressing mgrA C12S mutant gene harboring Pyj335-His-mgrA assessed as visible growth at 2.2 ug/ml after 24 hrs in presence of 20 uM paraquat

SMILES	Activity (Staphylococcus aureus [1])	Activity (Staphylococcus aureus [2])	Activity (Staphylococcus aureus [3])	Activity (Staphylococcus aureus [4])	Activity (Staphylococcus aureus [5])	Activity (Staphylococcus aureus [6])	Activity (Staphylococcus aureus [7])	Activity (Staphylococcus aureus [8])	Activity (Staphylococcus aureus [9])	Activity (Staphylococcus aureus [10])	Activity (Staphylococcus aureus [11])	Activity (Staphylococcus aureus [12])	Activity (Staphylococcus aureus [13])	Activity (Staphylococcus aureus [14])	Activity (Staphylococcus aureus [15])	Activity (Staphylococcus aureus [16])	Activity (Staphylococcus aureus [17])	Activity (Staphylococcus aureus [18])	Activity (Staphylococcus aureus [19])
O=C(O)c1cn(C2CC2)c2cc(N3CCNCC3)c(F)cc2c1=O [CIPROFLOXACIN]	Active	Active	inactive	Active	inactive	inactive	Active	inactive	inactive										
CN[C@H](CC(C)C)C(=O)N[C@H]1C(=O)N[C@@H](CC(N)=O)C(=O)N[C@H]2C(=O)N[C@H]3C(=O)N[C@H](C(=O)N[C@H](C(=O)O)c4cc(O)cc(O)c4-c4cc3ccc4O)[C@H](O)c3ccc(c(Cl)c3)Oc3cc2cc(c3O[C@@H]2O[C@H](CO)[C@@H](O)[C@H](O)[C@H]2O[C@H]2C[C@](C)(N)[C@H](O)[C@H](C)O2)Oc2ccc(cc2Cl)[C@H]1O [VANCOMYCIN]										inactive	Active	Active	Active	Active	Active	inactive	inactive	inactive	Active
